Format in all cases: physicochemical
Series [1] is described as follows: Stability of ketotifen-perborate formulations filled in polypropylene bottles and stored at 55° C. The note with it: stored at 55° C., Table 2 formulations. As for the experimental part:
The stability of the formulations shown in Table 1 are evaluated by filling the formulations in bottles and storing the formulations at 55° C. for various times.

A short description of series [2]: Hot stability: formulations heated at 100° C. for 24 hours.
Series [3] can be described thus: Compatibility of ketotifen with low concentrations of hydrogen peroxide.

Consider `CN1CCC(=C2c3ccccc3CC(=O)c3sccc32)CC1` [ketotifen], for which the “Stability of ketotifen (in words)” value in series [1] and in series [2] was “stable” throughout. In addition, the “Compatibility with low concentrations of hydrogen peroxide” value in series [3] (formulated at a pH lower than neutral pH) is “compatible”; in series [3] (formulated at neutral pH, i.e., a pH of about 7), “not compatible”.

These data come from patent US20080207692A1, “Stabilized and preserved ketoifen ophthalmic compositions” (priority 2005, published 2008).
